{"source": "patent US20230019280A1", "about": "“SUBSTITUTED ISOINDOLONYL 2,2'-BIP[…], ANALOGUES THEREOF, AND METHODS USING SAME” (priority 2019, published 2023)", "tested_on": "HBsAg", "test": "HBsAg assay (inhibition of HBsAg in HepG2.2.15 cells)", "type": "cell-based, hepatitis B virus", "conditions": "read-out: sAg EC50; HepG2.2.15 cells; supernatant HBsAg by CLIA at day 6 after exposure of compounds", "experimental": "Inhibition of HBsAg was determined in HepG2.2.15 cells. Cells were maintained in culture medium containing 10% fetal calf serum, […], Glutamine, penicillin/streptomycin. Cells were seeded in 96-well collagen-coated plate at a density of 30,000 cells/well. Serially diluted compounds were added to cells next day at the final DMSO concentration of 0.5%. Cells were incubated with compounds for 2-3 days, after which medium was removed. Fresh medium containing compounds was added to cells for additional 3-4 days. At day 6 after exposure of compounds, supernatant was collected, the HBsAg immunoassay (microplate-based chemiluminescence immunoassay kits, CLIA, Autobio Diagnosics Co., Zhengzhou, China, Catalog #CL0310-2) was used to determine the level of HBsAg according to manufactory instruction. Dose-response curves were generated and the EC50 value (effective concentrations that achieved 50% inhibitory effect) were determined using XLfit software. In addition, cells were seeded at a density of 5,000 cells/well for determination of cell viability in the presence and absence of compounds by using CellTiter-Glo reagent (Promega).", "data": [{"smiles": "COc1cc2c(cc1OC)C(c1ccccc1)N(c1nc(-c3ncccn3)ncc1F)C2=O", "note": "(single isomer, unassigned) [Example 70, 2-(5-Fluoro-[2,2′-bipyrimidin]-4-yl)-5,6-dimethoxy-3-phenylisoindolin-1-one]", "values": [{"measurement": "EC50", "value": 1, "unit": "nM"}]}]}
